The values that follow come from patent US8895617B1, “Composition and method for treating neurological disease” (Adamas Pharmaceuticals, Inc., priority 2004, dated 2014).

Entries after “also recorded” stand apart in the source; their conditions may differ.

A short description of data set [1]: In vitro release profile, USP type 2 (paddle) dissolution. The class given is physicochemical. Conditions: USP II Paddle, 0.1N HCl. The protocol: Compositions containing an aminoadamantane and levodopa/carbidopa are analyzed for release of the aminoadamantane and levodopa/carbidopa, according to the USP type 2 apparatus at a speed of 50 rpm. The dissolution media used include water, 0.1N HCl, or 0.1N HCl adjusted to pH 6.8 at 2 hours with phosphate buffer. The dissolution medium is equilibrated to 37±0.5° C.
The USP reference assay method for amantadine is used to measure the fraction of memantine released from the compositions prepared herein. Briefly, 0.6 mL sample (from the dissolution apparatus at a given time point) is placed into a 15 mL culture tube. 1.6 mL 0.1% Bromocresol Purple (in acetic acid) is added and vortexed for five seconds. The mixture is allowed to stand for approximately five minutes. 3 mL Chloroform is added and vortexed for five seconds. The solution is next centrifuged (speed […]) for five minutes. The top layer is removed with a disposable pipette. A sample is drawn into 1 cm flow cell and the absorbance is measured at 408 nm at 37° C. and compared against a standard curve prepared with known quantities of the same aminoadamantane. The quantity of determined is plotted against the dissolution time for the sample.
The USP reference assay method for levodopa is used to measure the fraction of levodopa released from the compositions prepared herein. Briefly, 0.5 ml samples from the dissolution apparatus removed at various times are assayed by liquid chromatography. The chromatograph is equipped with a 280 nm detector and a 3.9 mm×30 cm column containing packing Ll. The mobile phase is 0.09 N sodium phosphate, 1 mM sodium 1-decanesulfonate, pH 2.8. With the flow rate adjusted to about 2 mL per minute, the levodopa elutes in about 4 minutes and carbidopa elutes in about 11 minutes. From the saved dissolution samples, a 0.02 ml aliquot is injected into the chromatograph and the absorbance is measure and compared to standard to determine concentration & quantity. The quantity dissolved is then plotted against the dissolution time for the sample.
The cumulative fraction is the amount of drug substance released from the formulation matrix to the serum or gut environment (e.g., U.S. Pat. No. 4,839,177 or 5,326,570) or as measured with a USP II Paddle system using 0.1N HCl as the dissolution medium.

The nature of data set [2]: Estimated amantadine concentration in squirrel monkeys. The settings on record: amantadine raised from 1 mg/kg to 45 mg/kg. It is filed as in vivo, squirrel monkey. On the procedure:
Briefly, squirrel monkeys (N=4) were lesioned with MPTP according to the protocol of Di Monte et al. (Mov. Disord. 15: 459-66 (2000)). […] Levodopa treatment at approximately 15 mg/kg (with 1.5 mg/kg carbidopa) mg/kg b.i.d. commenced a baseline UPDRS and dyskinesia measurement was established. […] We hypothesize that this translates into a potential 40% reduction in levodopa required to maintain UPDRS.

The conditions of data set [3]: humans; cited from earlier work.

Turning to `NC12CC3CC(CC(C3)C1)C2` [Amantadine, 1-amino-adamantane], the cum. fraction released in data set [1] (Time 0, amantadine and levodopa/carbidopa combination) was determined as 0.00; in data set [1] (Time 0.5), 0.10; in data set [1] (Time 1.0), 0.20; in data set [1] (Time 2.0), 0.35; in data set [1] (Time 4.0), 0.60; in data set [1] (Time 8.0) it was 0.90. Also, the cum. fraction released in data set [1] (Time 12.0) was found to be 0.98. Moreover, the estimated concentration in data set [2] is given as around 3 μm.

Consider `CC12CC3CC(C)(C1)CC(N)(C3)C2` [Memantine, 1-amino-3,5-dimethyladamantane], for which the “Dose Dependent Toxicity” value in data set [3] is “Dose escalation; also recorded: hallucination”.

With `CC(N)C12CC3CC(CC(C3)C1)C2` (stereo not shown) [Rimantadine, 1-(1-aminoethyl)adamantane], the “Dose Dependent Toxicity” value in data set [3] was “Insomnia”.
